Test results reported in patent publication US12102709B2, “Anti-obesity agent, anti-dementia agent, deodorant, anti-aging agent, anti-glycation agent, anti-type I allergy agent, hypotensive agent, flavor improving agent, muscle enhancing agent, and bone metabolism improving agent” (Mitsui Sugar Co., Ltd., priority 2018, dated 2024).

System: C2C12 cells
Assay: Myotube cell differentiation promotion test (Fusion index)
Assay type: cell-based, mouse
Settings: 0.5 μM LDN-193189 with DMSO; 3 days; Comparative Example i2-2 55.1 ± 0.09
Experimental: (Cells) • Mouse Myoblasts C2C12 Cells (ATCC, CRL-1772) (Culture Mediums) • Growth culture medium composition: DMEM culture medium, 10% FBS, antibiotics added • Differentiation culture medium composition: DMEM culture medium, 0.5% FBS, antibiotics added C2C12 cells were cultivated using a growth culture medium in a T-75 flask (75 cm^2 U-shaped canted neck cell culture flask, commercially available from Corning Co., Ltd.). The T-75 flask was put into a CO2 incubator (5% CO2, 37° C., wet) and the C2C12 cells were cultured. The culture medium was replaced every other day, and when an 80% confluence was reached, the cells were collected and used for the test. Here, in the following test, regarding a well plate for culturing C2C12 cells, a plate coated with gelatin according to the following coating method was used. Pre-cultured cells were seeded in a 96-well plate for fluorescence observation at 4×10^4 cells/0.1 mL/well using a growth culture medium. The well plate was cultured in a CO2 incubator (5% CO2, 37° C.) for 2 days. […] After the culture medium was replaced, culturing was performed for 3 days, and after fixing, immunostaining with anti-myosin heavy chain (MHC) antibodies was performed. […] A total number of Hoechst positive nuclei and the number of MHC-positive nuclei were measured, and the Fusion index (% of MHC+nuclei) was calculated according to the following formula. […]

Structure (SMILES): c1ccc2c(-c3cnn4cc(-c5ccc(N6CCNCC6)cc5)cnc34)ccnc2c1 [Positive Control i2, 4-(6-(4-(piperazine-1-yl)phenyl)pyrazolo[1,5-a]pyrimidin-3-yl)quinoline]
- Fusion index (% of MHC + nuclei): 63.7 ± 0.88 %
